Assays:
Balb/c mice = assay: Plasma Ang 1-8 and Ang 1-7 levels in Balb/c mice after intra-peritoneal injection, LC-MS/MS; type: in vivo, mouse
Description: Mice were sacrificed 4 h following drug administration and blood was collected in the presence of protease inhibitors suitable for stabilization of angiotensin peptides in the collected sample. Following centrifugation of blood at 2500 g for 5 min at 4° C., Ang 1-8 and Ang 1-7 was quantified in the plasma samples by LC-MS/MS analysis.

SHR rats = assay: Systolic blood pressure in male SHR rats, tail-cuff method; type: in vivo, rat; conditions: day 7, mean +/-SEM
Description: Twenty male 16-week-old SHR rats were used for investigation of short-term effects of the new drug combination on systolic blood pressure. Prior to starting the treatment procedure, rats were conditioned to the experimental procedure by daily blood pressure measurements using the tail-cuff method for 1 week. […] Daily blood pressure measurements were performed 4 h following drug administration and continued throughout the whole treatment period. Blood-pressure data were evaluated by calculating the relative change in systolic blood pressure compared to the vehicle group at day 7 of drug administration. Statistical comparison between the groups was conducted by using Student's T-test.
Mean body weight and baseline systolic blood pressure of SHR rats were determined at the beginning of the treatment period resulting in a mean body weight of 283 g and mean systolic blood pressure of 196 mmHg. Following 7 days of daily oral administration of different compounds and compound combinations, systolic blood pressure was monitored by tail-cuff method and the relative changes compared to vehicle treated control rats (V) mean values are shown with corresponding standard errors of the mean (+/−SEM) (FIG. 1).

[1] = system: Ang 1-8 and Ang 1-7 levels in human whole blood; assay: Ang 1-8 and Ang 1-7 levels in human heparinized whole blood plus recombinant human renin, ex vivo, LC-MS/MS; type: biochemical; conditions: human whole blood + 100 pg/ml renin, 60 min 37° C., ACE inhibitors 10 μM; for Ang 1-7 level: vehicle control 27 pg/ml; for Ang 1-8 level: vehicle control 686 pg/ml
Description: Blood was collected from a human healthy volunteer using a standard heparin blood collection tube. Recombinant human renin was added to whole blood at a concentration of 100 pg/ml in order to simulate RAS hyper-activation. Drugs and combinations were added to different plasma samples at indicated final concentrations and combinations (FIG. 2) using appropriate solvent controls for each compound or combination tested. Following an incubation period of 60 min at 37° C., samples were stabilized by addition of protease inhibitors and Ang 1-8 and Ang 1-7 levels were measured by mass spectrometry.
Ang 1-8 and Ang 1-7 levels were measured following 1 h of incubating the compounds with human heparinized whole blood (plus recombinant human renin) at 37° C.

[2] = target: T1, APA (recombinant human ENPEP) (Homo sapiens, UniProt Q07075); assay: In vitro APA activity assay: conversion of Ang 1-8 to Ang 2-8, LC-MS/MS; type: biochemical; conditions: 0.1 μM Amastatin, 1 μg/ml APA
T1 construct: purchased R&D 2499-ZN
T1 sequence (Q07075 whole entry): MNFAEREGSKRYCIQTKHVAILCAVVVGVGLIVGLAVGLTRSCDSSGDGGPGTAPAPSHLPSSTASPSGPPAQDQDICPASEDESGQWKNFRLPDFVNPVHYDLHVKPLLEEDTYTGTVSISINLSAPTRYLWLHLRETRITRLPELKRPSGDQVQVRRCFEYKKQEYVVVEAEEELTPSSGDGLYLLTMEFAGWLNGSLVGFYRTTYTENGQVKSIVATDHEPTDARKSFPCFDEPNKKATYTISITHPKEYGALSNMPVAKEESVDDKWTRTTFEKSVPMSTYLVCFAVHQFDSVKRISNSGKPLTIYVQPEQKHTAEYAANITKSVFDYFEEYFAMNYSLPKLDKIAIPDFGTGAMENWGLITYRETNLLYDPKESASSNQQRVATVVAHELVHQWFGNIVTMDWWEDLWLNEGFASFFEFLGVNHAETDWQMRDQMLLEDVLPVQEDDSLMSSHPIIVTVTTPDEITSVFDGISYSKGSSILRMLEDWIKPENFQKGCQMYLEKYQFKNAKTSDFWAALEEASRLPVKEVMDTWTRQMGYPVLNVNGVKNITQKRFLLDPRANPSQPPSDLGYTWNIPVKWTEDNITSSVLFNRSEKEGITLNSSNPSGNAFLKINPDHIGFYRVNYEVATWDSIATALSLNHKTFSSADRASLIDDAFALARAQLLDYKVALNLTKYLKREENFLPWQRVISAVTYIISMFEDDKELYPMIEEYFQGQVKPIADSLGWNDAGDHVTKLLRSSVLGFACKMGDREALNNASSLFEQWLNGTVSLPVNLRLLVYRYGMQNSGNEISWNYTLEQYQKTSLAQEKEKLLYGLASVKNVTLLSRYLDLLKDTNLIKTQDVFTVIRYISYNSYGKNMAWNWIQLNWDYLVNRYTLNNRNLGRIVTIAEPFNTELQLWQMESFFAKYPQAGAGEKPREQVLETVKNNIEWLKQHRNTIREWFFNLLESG
Description: (§1) APA activity was determined by measuring Ang 2-8 formation using LC-MS/MS. The Ang 2-8 formation rate is given in pg Ang 2-8/ml per minute. […] Following the incubation period, samples were cooled on ice, stabilized by the addition of protease inhibitors and analyzed for Ang 1-8 levels by LC-MS/MS.

APN (EC 3.4.11.2) = APN (EC 3.4.11.2) (Homo sapiens, UniProt P15144); conditions: APN vs APA; cited from earlier work
APN (EC 3.4.11.2), sequence (P15144 whole entry, species assumed): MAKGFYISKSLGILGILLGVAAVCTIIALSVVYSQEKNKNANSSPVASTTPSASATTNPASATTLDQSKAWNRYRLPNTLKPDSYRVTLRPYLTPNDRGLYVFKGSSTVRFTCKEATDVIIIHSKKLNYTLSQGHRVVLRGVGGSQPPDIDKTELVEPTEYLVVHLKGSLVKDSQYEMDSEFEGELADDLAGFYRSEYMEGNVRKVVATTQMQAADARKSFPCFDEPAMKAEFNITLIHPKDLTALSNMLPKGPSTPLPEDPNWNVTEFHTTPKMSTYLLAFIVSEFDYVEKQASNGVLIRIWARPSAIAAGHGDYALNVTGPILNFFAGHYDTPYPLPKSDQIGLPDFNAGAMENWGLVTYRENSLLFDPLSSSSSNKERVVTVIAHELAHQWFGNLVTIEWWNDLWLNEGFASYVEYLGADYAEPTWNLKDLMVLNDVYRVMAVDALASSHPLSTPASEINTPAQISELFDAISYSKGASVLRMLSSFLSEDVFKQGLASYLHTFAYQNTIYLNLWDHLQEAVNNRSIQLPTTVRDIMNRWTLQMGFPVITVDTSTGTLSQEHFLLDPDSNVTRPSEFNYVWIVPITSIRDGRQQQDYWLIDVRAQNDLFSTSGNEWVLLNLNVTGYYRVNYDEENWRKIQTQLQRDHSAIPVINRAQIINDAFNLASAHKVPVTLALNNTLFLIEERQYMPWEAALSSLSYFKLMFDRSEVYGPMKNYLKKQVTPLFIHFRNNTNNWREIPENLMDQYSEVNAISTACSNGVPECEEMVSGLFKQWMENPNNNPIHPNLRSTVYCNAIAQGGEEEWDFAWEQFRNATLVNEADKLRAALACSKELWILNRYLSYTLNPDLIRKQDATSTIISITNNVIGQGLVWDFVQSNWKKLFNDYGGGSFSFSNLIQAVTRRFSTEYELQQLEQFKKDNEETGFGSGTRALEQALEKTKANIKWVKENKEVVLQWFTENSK

human APA in plasma = assay: Ex vivo APA activity and Ang 1-8 levels in human heparin plasma plus recombinant human renin; type: biochemical
Description: as §1

APA in the brain = target: T2, APA in the brain (Rattus norvegicus, UniProt P50123); conditions: via inhibition of APA by active metabolite EC-33 in the brain; cited from earlier work
T2 construct: host or cells: brain, in vivo
T2 sequence (P50123 whole entry): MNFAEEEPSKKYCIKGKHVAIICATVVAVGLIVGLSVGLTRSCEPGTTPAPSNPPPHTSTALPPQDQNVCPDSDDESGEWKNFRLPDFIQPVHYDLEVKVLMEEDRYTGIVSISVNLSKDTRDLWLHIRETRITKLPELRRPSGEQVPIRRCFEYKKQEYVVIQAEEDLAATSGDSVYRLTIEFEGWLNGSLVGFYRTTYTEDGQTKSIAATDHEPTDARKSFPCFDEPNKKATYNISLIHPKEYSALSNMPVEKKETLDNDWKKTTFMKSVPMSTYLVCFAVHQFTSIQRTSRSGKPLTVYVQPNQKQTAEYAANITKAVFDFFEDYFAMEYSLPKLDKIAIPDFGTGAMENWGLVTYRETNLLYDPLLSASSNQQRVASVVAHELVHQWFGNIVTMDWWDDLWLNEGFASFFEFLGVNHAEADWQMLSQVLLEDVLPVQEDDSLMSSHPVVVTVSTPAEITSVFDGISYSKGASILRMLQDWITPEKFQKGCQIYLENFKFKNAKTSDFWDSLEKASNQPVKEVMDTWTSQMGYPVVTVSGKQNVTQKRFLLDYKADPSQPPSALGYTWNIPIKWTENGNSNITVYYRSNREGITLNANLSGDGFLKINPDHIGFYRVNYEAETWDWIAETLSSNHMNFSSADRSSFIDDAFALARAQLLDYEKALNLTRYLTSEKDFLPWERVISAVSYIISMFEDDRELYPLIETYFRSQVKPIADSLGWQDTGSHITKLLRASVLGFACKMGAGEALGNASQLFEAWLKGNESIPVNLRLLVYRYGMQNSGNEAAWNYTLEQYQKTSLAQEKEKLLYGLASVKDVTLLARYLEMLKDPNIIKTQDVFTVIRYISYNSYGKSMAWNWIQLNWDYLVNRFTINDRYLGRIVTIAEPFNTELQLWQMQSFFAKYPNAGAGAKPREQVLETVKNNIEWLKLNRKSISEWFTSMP

SHR rat = conditions: one SHR rat, i.v. 50 μmol/kg Lisinopril then 20 μmol/kg Amastatin, blood 10 min after each infusion
Description: A male SHR rat was anesthetized by isoflurane followed by preparation of the jugular vein and insertion of an infusion catheter. At the beginning of the experiment (t=0 min) 200 μl of phosphate buffered saline was infused into the jugular vein within a period of 15 seconds. 10 min following saline infusion, 500 μl heparin blood was collected from the tail vein and placed on ice. Another 10 min later (t=20 min) a dose of 50 μmol/kg Lisinopril was in fused in a volume of 200 μl phosphate buffered saline, followed by another tail vein heparin blood collection of 500 μl heparin blood 10 min after Lisinopril infusion. […] Following centrifugation of blood at 2500 g for 5 min at 4° C., Ang 1-8 and Ang 1-7 was quantified in the plasma samples by LC-MS/MS analysis.

rats = conditions: administered to the periphery by intravenous injection in rats; cited from earlier work
APA over APN = conditions: cited from earlier work

In the case of `CC(C)C[C@@H](N)[C@H](O)C(=O)N[C@H](C(=O)N[C@H](C(=O)N[C@@H](CC(=O)O)C(=O)O)C(C)C)C(C)C` [Amastatin], the “change in circulating Ang 1-8” value (Balb/c mice; 40 mg/kg i.p., 4 h following drug administration) is reported as “decrease”, the “plasma Ang 1-7 level” value (Balb/c mice; 4 h after i.p. injection, 40 mg/kg each, baseline below LLOQ) is reported as under 4 pg/mL and the “increase in mean systolic blood pressure compared to vehicle treated animals” value (SHR rats; 40 mg/kg daily for 7 days, not significant (p=0.60)) is reported as 5.8+/−7.0 mmHg. The “Ang 1-7 level” value [1] was 15 pg/mL, the “Ang 1-8 level” value [1] was 1016 pg/mL and the “effect on APA activity in vitro” value [2] was “did not affect APA activity in vitro”. The “Ang 2-8 formation rate” value ([2]; 100 ng/ml Ang 1-8, 37° C. 10 min, 971 without Amastatin) was 1077 pg Ang 2-8/ml per minute, the “more potent in inhibiting APN compared to APA” value (APN (EC 3.4.11.2)) was 40 fold and the “effect on the activity of human APA in plasma” value (human APA in plasma; 0.1 μM Amastatin, 1 μg/ml APA) was “did not affect the activity of human APA in plasma”. For the same compound, the “Ang 1-8 level in human heparin plasma” value (human APA in plasma; 0.1 μM Amastatin, no added APA, 100 pg/ml renin, 60 min 37° C., untreated control 412 pg/ml) was 752 pg/mL and the “reduction of Ang 1-8 levels by 1 μg/ml APA in the presence of 0.1 μM Amastatin” value (human APA in plasma; human heparin plasma, 266 pg/ml without Amastatin) was 323 pg/mL.

For `N[C@@H](CCS(=O)(=O)O)CSSC[C@@H](N)CCS(=O)(=O)O` [RB150], the “effect on blood pressure” value (APA in the brain) is given as “effective in lowering blood pressure”.

For `NCCCC[C@H](N[C@@H](CCc1ccccc1)C(=O)O)C(=O)N1CCC[C@H]1C(=O)O` [Lisinopril], the “increase of Ang 1-7 following ACE inhibitor treatment alone” value (Balb/c mice; 4 h after i.p. injection) was “not observed”, the “equilibrium Ang 1-8 level” value (SHR rat; after saline 42.7 pg/ml) was 21.5 pg/mL and the “equilibrium Ang 1-7 level” value (SHR rat; after saline below 3.4 pg/ml) was 12.1 pg/mL. The “decrease in systolic blood pressure compared to vehicle treated animals” value (SHR rats; 40 mg/kg of each drug daily for 7 days, measured 4 h after dosing, 5 animals per group) was 18.6+/−3.9 mmHg, the “Ang 1-7 level” value [1] was 153 pg/mL and the “Ang 1-8 level” value [1] was 33 pg/mL.

In the case of `N[C@H](CS)CCS(=O)(=O)O` [EC-33], the “effect on blood pressure” value (rats) is given as “no effect on blood pressure” and the “selectivity for APA over APN” value (APA over APN) is given as “at least 100 fold”.

For `C[C@H](CS)C(=O)N1CCC[C@H]1C(=O)O` [Captopril], the “increase of Ang 1-7 following ACE inhibitor treatment alone” value (Balb/c mice; 4 h after i.p. injection) was “not observed”, the “Ang 1-7 level” value [1] was 100 pg/mL and the “Ang 1-8 level” value [1] was 29 pg/mL.
